Source: patent publication US10780067B2, “Endoxifen for local transdermal therapy to the breast” (Northwestern University, priority 2016, dated 2020)

Key:
[1] = Plasma, breast adipose tissue and NAF concentrations of tamoxifen and its metabolites (LC-MS/MS), presurgical trial; type: in vivo, human; conditions: in vivo
Text: All participants provided informed consent. Baseline assessments included a history and physical, explanation of gel application, completion of the Breast Cancer Prevention Trial Eight Symptom Scale (BESS) questionnaire, collection of a venous blood sample, and collection of nipple aspirate fluid (NAF) from NAF yielders. […] Treatment began within 5 days post-randomization and ended on the day prior to surgical resection. Participants were instructed to apply the gel to the entire skin envelope of each breast each morning, after a shower. Duration of therapy was 6-10 weeks. Compliance was assessed through participant diaries, counts of returned pills and of returned gel canisters. Participants who took at least 80% of the prescribed dose were considered compliant.
Assessments similar to those performed at baseline were repeated on the day prior to, or on the morning of surgery. During surgery, breast adipose tissue from the surgical sample was snap frozen and stored at −80° C. for measurement of tamoxifen and metabolites. The samples were obtained from a location adjacent to the DCIS lesion to provide uniformity between participants undergoing breast conservation and mastectomy. The paraffin block of the core and excision samples were acquired by the recruiting institution and 10 sections from each specimen were submitted to the NU Pathology Core Facility. The sections were cut in batches (with pre- and post-treatment samples in the same batch), shipped cold, and processed for immunohistochemistry within four weeks.
(Z)-tamoxifen, (Z)-NDT, (E) and (Z)-4-OHT, and (Z)-endoxifen were measured by liquid chromatography-tandem mass spectrometry with a turbo ion spray interface operating in positive mode (API 3000; AB SCIEX, Foster City, Calif.). […] For analysis of NAF, samples were collected in a capillary tube and diluted with 200 μL of phosphate buffered saline; 100 μL of the diluted NAF sample was used for analysis. Breast adipose tissue samples, 25 mg, were minced and treated with 125 μL of […] and extracted as described above.
Retention times for (Z)-tamoxifen, (Z)-NDT, (Z)-4-OHT, (E)-4-OHT and (Z)-endoxifen were 7.3, 6.8, 5.1, 4.7 and 4.5 min, respectively. […] In three participants, matched samples were not available: breast adipose tissue was not collected in two, and the plasma sample was missing in one.
Since the fraction of E and Z isoforms of 4-OHT was of particular interest, we used an additional validated method to study plasma concentrations of these metabolites in a different laboratory (Eurofins Medinet, Chantilly, Va.): Plasma from blood samples collected in lithium-heparin tubes was frozen at −20° C., shipped in batches on dry ice to them Eurofins Medinet central laboratory; LC-MS/MS was used for the simultaneous determination of (E) 4-OHT and (Z) 4-OHT, with a lower limit of quantitation (LOQ) of 10 pg/mL and upper LOQ of 10,000 pg/mL. Eurofins Medinet developed and validated them method for BHR Pharma, in accordance with the FDA Guidance on Bioanalytical Method Validation.

MCF-7 xenograft = conditions: dose of 2-8 mg/kg; cited from earlier work
ERβ = ERβ (Homo sapiens, UniProt Q92731); conditions: cited from earlier work
MCF7 xenograft [2] = conditions: simulation using human PK; cited from earlier work
[3] = oral dose of 160 mg daily; cited from earlier work
MCF7 xenograft [4] = conditions: MCF7 xenograft bearing mice, cited from earlier work
[5] = alcoholic solution of ENX 0.2 mg/mL with 0.5% oleic acid; cited from earlier work
ERα = biological target: T1, ERα (Homo sapiens, UniProt P03372); conditions: cited from earlier work
T1 sequence (P03372 1-595): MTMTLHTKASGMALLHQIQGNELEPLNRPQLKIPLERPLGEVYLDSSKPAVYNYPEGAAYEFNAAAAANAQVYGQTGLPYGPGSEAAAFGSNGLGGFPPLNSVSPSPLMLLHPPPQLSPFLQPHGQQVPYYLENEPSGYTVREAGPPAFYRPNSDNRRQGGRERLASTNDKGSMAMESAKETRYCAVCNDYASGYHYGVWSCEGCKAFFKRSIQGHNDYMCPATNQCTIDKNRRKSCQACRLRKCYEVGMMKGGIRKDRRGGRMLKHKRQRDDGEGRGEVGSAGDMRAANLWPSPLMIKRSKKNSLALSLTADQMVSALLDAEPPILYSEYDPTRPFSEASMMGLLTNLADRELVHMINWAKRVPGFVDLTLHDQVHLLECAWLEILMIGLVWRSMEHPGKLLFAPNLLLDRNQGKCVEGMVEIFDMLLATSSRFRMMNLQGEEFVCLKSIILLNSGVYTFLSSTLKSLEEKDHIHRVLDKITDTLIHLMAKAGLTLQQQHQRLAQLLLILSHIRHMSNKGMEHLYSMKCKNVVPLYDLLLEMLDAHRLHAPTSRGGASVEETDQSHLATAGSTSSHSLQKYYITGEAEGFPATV

[6] = female, human, in vivo, 72 h
Protocol: (§1) Nonpregnant women scheduled for mastectomy to prevent or treat breast cancer were recruited through the Lynn Sage Comprehensive Breast Center of Northwestern Medicine. All participants were randomized to patch application to one surgical breast (per participant) or the abdominal skin. The diclofenac patch (Flector® patch, 10 cm×14 cm) is a semi-occlusive, bioadhesive patch containing 129.7 mg of diclofenac acid. After baseline evaluation, the participants were instructed on site of patch application and to replace patch every 12 h over 72 h prior to surgery.
(§2) The breast group wore the patch over the upper outer breast, with the lower inner corner of the patch at the level of the nipple (FIG. 3b). The abdominal group wore the patch on the lower abdomen on the side opposite the planned mastectomy (FIG. 3a). Participants were assessed for baseline signs/symptoms and then by telephone the second day of the treatment and on the day of surgery. All adverse events were coded using the NCI Common Terminology Criteria for Adverse Events version 4.0.
(§3) On the day of surgery, the transdermal patch was removed in the operating room prior to anesthesia and 30 mL venous blood was collected with anticoagulant K2EDTA (BD Vacutainer®, BD Hemogard™ product no. 366643). Tissue samples from the mastectomy specimen were obtained from eight predetermined locations of one breast per participant (FIG. 3b), four central/periareolar and four peripheral samples 5 cm away, at 12, 3, 6, and 9 O'clock. Each tissue sample was weighed and snap-frozen in liquid nitrogen and kept in −80° C. until analysis.
(§4) Formalin-fixed, paraffin-embedded (FFPE) samples were taken from locations adjacent to the drug assay samples, for histological evaluation of tissue composition, and were available from all subjects.
(§5) The concentrations of all the drugs used in rats and humans were determined by liquid chromatography-tandem mass spectroscopy (API 3000; AB SCIEX, Foster City, Calif., USA). […] The mobile phase was A: 0.1% formic acid in water (v/v) and B: 0.1% formic acid in acetonitrile (v/v). […] The lowest limits of quantification (LLOQ) were as follow: tamoxifen and N-desmethyl tamoxifen (NDT) (plasma 10 ng/mL; tissue 40 ng/g); 4-OHT and endoxifen (plasma 0.5 ng/mL; tissue 2 ng/g); telapristone and N-desmethyl telapristone (d-telapristone) (plasma 1 ng/mL; tissue 1.5 ng/g); and diclofenac (plasma 0.5 ng/mL; tissue 2 ng/g).
(§6) The medians and IQR's were reported for diclofenac concentrations by breast region and patch groups (Table 9). To compare breast concentrations by site of patch application, we replaced non-detectable values with “zero” and considered the median concentration from eight samples as the representative breast concentration per individual for statistical purposes. The Wilcoxon rank-sum test was used to assess median concentration differences between patch groups, among regions of the breast, and by menopausal status within each treatment group.
(§7) Diclofenac was determined by LC-MS/MS (API 3000; AB SCIEX, Foster City, Calif.).

clinical = conditions: female, human, in vivo
Protocol: as §1, §2, §3, §4, §5, §6, §7

ERβ, sequence (Q92731 whole entry): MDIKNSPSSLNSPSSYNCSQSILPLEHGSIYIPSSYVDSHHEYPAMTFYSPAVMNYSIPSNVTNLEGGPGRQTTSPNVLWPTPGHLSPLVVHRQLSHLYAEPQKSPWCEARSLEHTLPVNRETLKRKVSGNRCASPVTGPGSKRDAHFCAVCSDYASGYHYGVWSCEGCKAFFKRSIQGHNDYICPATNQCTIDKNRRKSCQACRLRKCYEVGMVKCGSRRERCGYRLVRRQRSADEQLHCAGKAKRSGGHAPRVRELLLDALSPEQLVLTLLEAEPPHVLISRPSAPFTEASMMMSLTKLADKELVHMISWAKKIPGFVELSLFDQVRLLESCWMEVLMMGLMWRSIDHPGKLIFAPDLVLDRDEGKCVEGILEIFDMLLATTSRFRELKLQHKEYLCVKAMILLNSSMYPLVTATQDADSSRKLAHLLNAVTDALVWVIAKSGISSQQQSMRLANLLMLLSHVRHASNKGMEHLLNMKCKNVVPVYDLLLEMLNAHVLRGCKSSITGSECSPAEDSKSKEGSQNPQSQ

Question: What does the source list for 4-hydroxytamoxifen [4-OHT gel]?
Answer: NAF concentration of NDT, individual participants [1]: undetectable; NAF concentration of endoxifen [1]: undetectable; NAF concentration of tamoxifen, individual participants [1]: undetectable; participants with 4-OHT detectable in breast tissue [1]: 9 of 10; participants with 4-OHT detectable in plasma [1]: 5; breast adipose tissue concentrations of (Z) 4-OHT (discussion) ([1]; po): over 5 ng/mg

Question: Which “efficacy against MCF-7 xenograft model” value (MCF-7 xenograft) does the source give for `CC/C(=C(\c1ccc(O)cc1)c1ccc(OCCNC)cc1)c1ccccc1.O=C(O)CC(O)(CC(=O)O)C(=O)O` [ENX citrate] here?
Answer: shows efficacy

Question: With `CC/C(=C(\c1ccc(O)cc1)c1ccc(OCCNC)cc1)c1ccccc1` [Endoxifen, N-desmethyl-4-hydroxytamoxifen] as the molecule, how does the “binding affinity for ERβ relative to TAM” value (ERβ) read?
Answer: 56 fold

Question: And the “TGI at day 21, 0.5 mg/day oral” value (MCF7 xenograft [2])?
Answer: 67%

Question: And the “TGI at day 21, 1 mg/day oral” value (MCF7 xenograft [2])?
Answer: 87%

Question: What about the “TGI at day 21, 4 mg/day oral” value (MCF7 xenograft [2]) of the same molecule?
Answer: 97%

Question: What about the MTT [3] of the same molecule?
Answer: not reached

Question: What about the “Cstasis (plasma ENX showing 100% TGI)” value (MCF7 xenograft [4]) of the same molecule?
Answer: 53 nM

Question: What about the “KC50 of plasma ENX” value (MCF7 xenograft [4]; tumor growth inhibition, oral ENX) of the same molecule?
Answer: 14 nM

Question: What about the “in vitro human skin penetration” value [5] of the same molecule?
Answer: penetrates human skin efficiently

Question: What about the “binding affinity for ERα relative to TAM” value (ERα) of the same molecule?
Answer: 25 fold

Question: With `O=C(O)Cc1ccccc1Nc1c(Cl)cccc1Cl` [diclofenac] as the molecule, how does the “diclofenac breast concentration, abdominal patch, All locations” value [6] read?
Answer: 0.13 (0.00, 0.37) ng/g tissue

Question: What about the “diclofenac breast concentration, abdominal patch, sampling location 6” value [6] of the same molecule?
Answer: 0.04 (0.00, 0.48) ng/g tissue

Question: And the “diclofenac breast concentration, breast patch, All locations” value [6]?
Answer: 0.77 (0.23, 2.97) ng/g tissue

Question: What about the “diclofenac breast concentration, breast patch, sampling location 6” value [6] of the same molecule?
Answer: 0.31 (0.00, 1.23) ng/g tissue

Question: And the “diclofenac plasma concentration, abdominal patch” value [6]?
Answer: 1.06 (0.81, 1.88) ng/mL

Question: What about the “diclofenac plasma concentration, breast patch” value [6] of the same molecule?
Answer: 1.02 (0.71, 1.78) ng/mL

Question: And the “tissue samples with detectable diclofenac, abdominal group” value [6]?
Answer: 58%

Question: And the “tissue samples with detectable diclofenac, breast group” value [6]?
Answer: 79%

Question: And the concentration at 72 h (clinical; diclofenac breast concentration, abdominal patch, All locations)?
Answer: 0.13 ng/g

Question: What about the concentration at 72 h (clinical; diclofenac breast concentration, abdominal patch, sampling location 1) of the same molecule?
Answer: 0 ng/g

Question: What about the concentration at 72 h (clinical; diclofenac breast concentration, abdominal patch, sampling location 2) of the same molecule?
Answer: 0.18 ng/g

Question: And the concentration at 72 h (clinical; diclofenac breast concentration, abdominal patch, sampling location 3)?
Answer: 0.2 ng/g

Question: And the concentration at 72 h (clinical; diclofenac breast concentration, abdominal patch, sampling location 4)?
Answer: 0.19 ng/g

Question: And the concentration at 72 h (clinical; diclofenac breast concentration, abdominal patch, sampling location 5)?
Answer: 0.11 ng/g

Question: And the concentration at 72 h (clinical; diclofenac breast concentration, abdominal patch, sampling location 6)?
Answer: 0.04 ng/g

Question: And the concentration at 72 h (clinical; diclofenac breast concentration, abdominal patch, sampling location 7)?
Answer: 0.14 ng/g

Question: What about the concentration at 72 h (clinical; diclofenac breast concentration, abdominal patch, sampling location 8) of the same molecule?
Answer: 0.08 ng/g

Question: What about the concentration at 72 h (clinical; diclofenac breast concentration, breast patch, All locations) of the same molecule?
Answer: 0.77 ng/g

Question: And the concentration at 72 h (clinical; diclofenac breast concentration, breast patch, sampling location 1)?
Answer: 0.63 ng/g

Question: What about the concentration at 72 h (clinical; diclofenac breast concentration, breast patch, sampling location 2) of the same molecule?
Answer: 0.64 ng/g

Question: And the concentration at 72 h (clinical; diclofenac breast concentration, breast patch, sampling location 3)?
Answer: 0.48 ng/g

Question: And the concentration at 72 h (clinical; diclofenac breast concentration, breast patch, sampling location 4)?
Answer: 1.64 ng/g

Question: What about the concentration at 72 h (clinical; diclofenac breast concentration, breast patch, sampling location 5) of the same molecule?
Answer: 1.98 ng/g

Question: What about the concentration at 72 h (clinical; diclofenac breast concentration, breast patch, sampling location 6) of the same molecule?
Answer: 0.31 ng/g

Question: And the concentration at 72 h (clinical; diclofenac breast concentration, breast patch, sampling location 7)?
Answer: 1.12 ng/g

Question: And the concentration at 72 h (clinical; diclofenac breast concentration, breast patch, sampling location 8)?
Answer: 0.58 ng/g

Question: What about the concentration at 72 h (clinical; diclofenac plasma concentration, abdominal patch) of the same molecule?
Answer: 1.06 ng/mL

Question: What about the concentration at 72 h (clinical; diclofenac plasma concentration, breast patch) of the same molecule?
Answer: 1.02 ng/mL

Question: And the concentration at 72 h (clinical; median breast concentration of diclofenac with IQR, fatty samples)?
Answer: 8.71 ng/g

Question: And the concentration at 72 h (clinical; median breast concentration of diclofenac with IQR, fibrous samples)?
Answer: 0.19 ng/g

Question: What about the concentration at 72 h (clinical; median breast concentration of diclofenac with IQR, mixed samples) of the same molecule?
Answer: 0.52 ng/g

Question: What about the concentration at 72 h (clinical; median diclofenac breast concentration, abdominal group, medium-sized breasts) of the same molecule?
Answer: 0.21 ng/g

Question: What about the concentration at 72 h (clinical; median diclofenac breast concentration, abdominal group, small breasts) of the same molecule?
Answer: 0.6 ng/g

Question: And the concentration at 72 h (clinical; median diclofenac breast concentration, breast group, medium-sized breasts)?
Answer: 1.31 ng/g

Question: And the concentration at 72 h (clinical; median diclofenac breast concentration, breast group, small breasts)?
Answer: 1.12 ng/g

Question: What about the concentration at 72 h (clinical; median diclofenac concentration, central locations (1 through 4), abdominal group) of the same molecule?
Answer: 0.85 ng/g

Question: And the concentration at 72 h (clinical; median diclofenac concentration, central locations (1 through 4), breast group)?
Answer: 4.91 ng/g

Question: And the concentration at 72 h (clinical; median diclofenac concentration, peripheral locations (5 through 8), abdominal group)?
Answer: 0.75 ng/g

Question: What about the concentration at 72 h (clinical; median diclofenac concentration, peripheral locations (5 through 8), breast group) of the same molecule?
Answer: 9.92 ng/g

Question: And the concentration at 72 h (clinical; range of diclofenac concentrations in tissue samples of three women, abdominal group)?
Answer: 1.2 to 4.8 ng/g
